Source: PubChem BioAssay (NCI)
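Five compound concentrations were applied to cells in 96-well plates for 48 hours; endpoints were derived by simple linear interpolation of the resulting dose-response curve. TGI: total growth inhibition.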

Key:
Test in all cases: NCI anticancer screen, dose series, 48 h
[1] = test system: SF-268 CNS
[2] = test system: OVCAR-5 ovarian
[3] = test system: HS 578T breast
[4] = test system: NCI-H460 lung
[5] = test system: A498 renal
[6] = test system: T-47D breast
[7] = test system: EKVX NSCLC
[8] = test system: SNB-19 CNS
[9] = test system: SK-MEL-2 melanoma
[10] = test system: SF-295 CNS
[11] = test system: HCT-116 colon
[12] = test system: CCRF-CEM leukemia
[13] = test system: SN12C renal
[14] = test system: MOLT-4 leukemia
[15] = test system: MDA-MB-435
[16] = test system: MCF7 breast
[17] = test system: NCI-H522 lung
[18] = test system: SR leukemia
[19] = test system: UO-31 renal

Row | SMILES | TGI [1] [µM] | TGI [2] [µM] | TGI [3] [µM] | TGI [4] [µM] | TGI [5] [µM] | TGI [6] [µM] | TGI [7] [µM] | TGI [8] [µM] | TGI [9] [µM] | TGI [10] [µM] | TGI [11] [µM] | TGI [12] [µM] | TGI [13] [µM] | TGI [14] [µM] | TGI [15] [µM] | TGI [16] [µM] | TGI [17] [µM] | TGI [18] [µM] | TGI [19] [µM]
1 | O=C1NC(N/N=C/C(O)C(O)C(O)C(O)CO)=N/C1=C\c1ccco1 (stereo not given) | > 100 | > 100 | > 100 | > 100 | > 100 | > 100 | > 100 | > 100 | > 100 | > 100 | > 100 | > 100 | > 100 | > 100 | > 100 | > 100 | > 100 |  | 
2 | CN(C)CCCN1c2ccc([N+](=O)[O-])cc2CCc2cccc([N+](=O)[O-])c21 | 29 | 33.3 | 31.7 | 29.2 |  | 37.2 | 39.1 | 36.1 | 33.5 | 28.2 | 27.3 | 46.4 | 28.6 | 51.5 | 27.7 |  | 32.1 | > 100 | 
3 | COc1ccc(/C=c2/sc3n(c2=O)C(c2ccccc2)C2(O)CCCCC2N=3)cc1 (stereo not given) | > 12.5 | > 12.5 |  | > 12.5 |  | > 12.5 |  | > 12.5 | > 12.5 |  | > 12.5 | > 12.5 |  | > 12.5 | > 12.5 | > 12.5 | > 12.5 | > 12.5 | > 12.5
4 | CC1=CC(=O)[C@@H](O)[C@]2(C)[C@H]3[C@@]4(O)OC[C@]35[C@H]([C@@H](C)[C@H]4O)[C@@H](OC(=O)C(C)(C)CO)C(=O)O[C@@H]5C[C@@H]12 | 0.236 | 23.3 | 0.897 | 0.547 | 5.39 |  | 15.1 | 0.626 | 0.559 | 1.71 | 2.11 |  | 4.5 |  | 1.65 | > 100 | 0.417 |  | 2.44
5 | COc1cc2c(cc1OC)[C@@H]1[C@H](C#N)C(=O)C(C)(C)N1CC2 |  | > 100 | > 100 | > 100 | > 100 |  | > 100 | > 100 |  | > 100 | > 100 | > 100 | > 100 | > 100 | > 100 | > 100 | > 100 | > 100 | > 100
6 | COc1ccc2c(c1)CC[C@@H]1[C@@H]2CC[C@]2(C)C(=O)/C(=C/c3ccc(N(C)C)cc3)C[C@@H]12 | 89.9 | > 100 |  | > 100 | > 100 | > 100 | > 100 | > 100 | 84.6 | > 100 | > 100 |  |  | > 100 | > 100 |  |  |  | > 100
7 | CSC1=C(C#N)C(=S)N=C(N)C1C(=O)Nc1ccc(C)cc1 (stereo not given) | > 100 | > 100 | > 100 | > 100 | > 100 | > 100 | > 100 | > 100 | > 100 |  | > 100 | > 100 | > 100 | > 100 | > 100 |  | 94.8 | > 100 | > 100
8 | COC1(c2ccc(Cl)cc2)SC=C(C)n2c1noc2=O (stereo not given) | > 100 | > 100 | > 100 | > 100 | > 100 |  | > 100 | > 100 |  | > 100 | > 100 | > 100 | > 100 | > 100 | > 100 | > 100 | > 100 | > 100 | > 100
9 | CCN(CC)c1ccc2cc(C(N)=O)c(=N)oc2c1 | > 100 | > 100 | 45.8 | > 100 | > 100 | 83.9 |  | > 100 | 54.1 |  | > 100 | > 100 | > 100 | > 100 | > 100 |  |  | > 100 | 
10 | Cc1ccc(Nc2nc(=O)c3c4ccccc4n(C(=O)OC(C)(C)C)c3s2)cc1 | 59.3 | 48.3 | > 100 | 43.1 | > 100 | > 100 | > 100 | > 100 | 59.2 | 65.6 |  | > 100 |  | > 100 | 38.1 |  | 59.3 | 44.9 | 22.8
11 | Cc1ccc2c(c1)[nH]c(=S)n2C=C(C(N)=O)C(N)=O | > 100 | > 100 |  | > 100 | > 100 | > 100 | > 100 | > 100 | > 100 | > 100 | > 100 |  | > 100 |  | > 100 |  |  |  | > 100
12 | O=[N+]([O-])c1cccc2nc3ccccc3c(NCCCCNc3c4ccccc4nc4cccc([N+](=O)[O-])c34)c12 | 0.189 | 1.64 | 0.935 | 0.0574 |  | 1.04 | 2.11 | 0.152 | > 100 | 1.02 | 0.0347 | 0.0892 | 0.38 | 0.0887 |  | 0.412 | 0.0639 |  | 0.398
13 | N#Cc1cccc2c1Sc1ccccc1N2 | > 100 | 72.8 |  | > 100 | 58.3 | > 100 | 97.4 | > 100 |  | 69.1 | > 100 | > 100 | > 100 | 85.7 | > 100 | > 100 |  | > 100 | 87.9
14 | S=c1nc2sc3c(c2c(Nc2ccc(Cl)cc2)[nH]1)CCCC3 | > 100 | > 100 | > 100 | > 100 | > 100 |  | > 100 | > 100 | > 100 | > 100 | > 100 | > 100 | > 100 | > 100 | > 100 | > 100 | > 100 | > 100 | > 100
15 | C=CCC1(O)CC(n2cc(C)c(=O)[nH]c2=O)OC1CO[Si](C)(C)C(C)(C)C (stereo not given) |  | > 100 |  | > 100 | > 100 | > 100 | > 100 | > 100 | > 100 | > 100 | > 100 | > 100 | > 100 | > 100 | > 100 | > 100 |  | > 100 | > 100
16 | C=CC[C@H]1O[Si](C(C)(C)C)(C(C)(C)C)[C@H](C)[C@H]1C |  | > 100 |  |  | > 100 | > 100 | > 100 | > 100 | > 100 | > 100 | > 100 | > 100 | > 100 | > 100 | > 100 | > 100 | > 100 | > 100 | > 100
17 | CC(=O)c1cccc(Nc2nc3ccccc3c3occc23)c1 | 86.7 | > 100 |  | > 100 | 30.5 | > 100 | > 100 | 60.9 |  | 48.4 | 50 | > 100 | 45.6 | > 100 | > 100 | > 100 |  | > 100 | 
18 | C=C(C)[C@@H]1CCC2=C[C@@H](OC2=O)[C@@H](C(=C)C)C2=CC(C(=O)O)=C(C1)O2 | > 100 | > 100 | > 100 |  | > 100 | > 100 | > 100 | > 100 | > 100 | > 100 | > 100 | > 100 | > 100 | > 100 | > 100 | > 100 | > 100 |  | > 100
19 | Cc1ccc(S(=O)(=O)NC(=O)NC(CC(N)=O)C(=O)O)cc1 (stereo not given) | > 100 | > 100 | > 100 | > 100 |  | > 100 |  | > 100 | > 100 | > 100 | > 100 | > 100 | > 100 | > 100 |  | > 100 | > 100 | > 100 | > 100
20 | Cc1cccc2oc3c(CC(=O)O)cccc3c(=O)c12 | > 100 |  | > 100 | > 100 | > 100 |  | > 100 | > 100 | 17.4 | > 100 | > 100 | > 100 | > 100 | > 100 | > 100 | > 100 | > 100 | > 100 | > 100
21 | C/C=C/C(C#N)(/C=C/c1ccccc1)OP1(=O)OC(c2ccccc2)C(C)N1C (stereo not given) | 42.1 | 43.6 | 49.9 | 33.8 | 35.6 | 68.9 | 44.5 | 42.1 | 35.9 | 31 | 31.3 | 28 | 35.5 | 28.8 | 34.9 | 49.4 | 42.2 |  | 32.6
22 | COc1cc(-c2ccc(Br)[nH]2)[nH]c1C=NCC(C)C | 9.1 | 5.05 | 5.26 | 7.92 | 7.16 |  | 2.03 |  | 3.07 | 3.67 | 2.86 | 3.24 | 7.51 | 4.04 | 4.54 | 2.47 |  |  | 4.77
23 | Nn1c(CCCCCCCCc2nnc(COc3ccc(Cl)cc3Cl)n2N)nnc1COc1ccc(Cl)cc1Cl | > 100 | > 100 |  | > 100 | > 100 |  | > 100 | > 100 | > 100 |  | 86.8 |  | > 100 | > 100 | > 100 | > 100 | 59.7 |  | > 100
24 | COc1c2c(cc3c1C(=O)c1c(O)cccc1C3=O)CC(O)CC2 (stereo not given) |  | > 100 | 74.1 | > 100 | > 100 | 93.6 | > 100 | 57.1 | > 100 | 46.5 | > 100 | > 100 | > 100 | > 100 | > 100 | > 100 |  |  | > 100
25 | c1ccc(C(C2=Nc3cccc4cccc(c34)N2)c2ccccc2)cc1 | 66.1 |  | 81.8 | 54.3 |  | 37 | 80.7 | > 100 | 50 | 42.8 |  | > 100 | 30.2 |  | 66.1 | > 100 | 36.3 |  | 51.2
26 | NC(=O)c1ccc(C(=O)Nc2ccc([As](=O)(O)O)cc2)cc1 | > 100 | > 100 | > 100 | > 100 | > 100 | > 100 | > 100 | > 100 | > 100 | > 100 | > 100 | > 100 | > 100 | > 100 | > 100 | > 100 | > 100 |  | > 100
27 | O=C(Nc1ccccc1)OCCN=C1c2ccccc2C(Br)C(Br)c2ccccc21 (stereo not given) | 15.6 | > 31.6 | 22 | 19.5 | 18.1 |  | 19.8 | 27 | > 31.6 | > 31.6 | 13.3 | 5.3 | 17.5 | 5.06 | 17.1 | > 31.6 | 8.41 | 7.08 | 3.61
28 | COc1cc(NC(C)c2ccc3c(c2)OCCO3)cc(OC)c1OC (stereo not given) | > 100 | > 100 | 52.1 | > 100 | > 100 |  | > 100 | > 100 | 79.8 | > 100 | > 100 |  | > 100 | > 100 | 32 | > 100 | 48.9 | > 100 | > 100
